Earlier results in patent US20230330191A1, “METHODS OF STIMULATING BONE GROWTH WITH ABALOPARATIDE AND DENOSUMAB” (Radius Health, Inc., priority 2020, published 2023).

Experiments:
[1] = system: RANKL:OPG ratio; settings: Makino, CTI 2018
[2] = system: ovariectomy-induced osteopenia animal models
[3] = in vivo
[4] = in vivo; remark: listed apart in the source
[5] = system: women

For “[Glu22,25, Leu23,28,31, Aib29, Lys26,30]hPTHrP(1-34)NH2 [abaloparatide]”, the “RANKL and OPG expression, RANKL:OPG ratio” value [1] is given as “upregulates RANKL and reduces OPG, increasing the RANKL:OPG ratio”, the “bone loss (bone anabolic activity)” value [2] is given as “complete reversal of bone loss” and the “incidence of the most common adverse reactions (hypercalciuria, dizziness, nausea, headache, palpitations, fatigue, upper abdominal pain, vertigo)” value [3] is given as > 2%. For the same compound, the “increases in BMD compared with cathepsin K inhibitor drugs or PTH-like drugs such as teriparatide” value [4] was “substantially faster and greater” and the “potential to induce hypercalcemia compared to teriparatide” value [4] was “lower potential to induce hypercalcemia”.

In the case of “Denosumab: fully human monoclonal IgG antibody with affinity and specificity for human receptor activator of nuclear factor kappa-B ligand (RANKL)”, the “effects of denosumab withdrawal on bone” value ([5]; after withdrawal (Cummings JBMR 2017)) is given as “dramatic increased bone remodeling, rapid prominent bone loss, and multiple vertebral fractures”.

For `CC[C@H](C)[C@H](NC(=O)[C@H](CCC(=O)O)NC(=O)[C@H](CO)NC(=O)[C@@H](NC(=O)[C@@H](N)CO)C(C)C)C(=O)N[C@@H](CCC(N)=O)C(=O)N[C@@H](CC(C)C)C(=O)N[C@@H](CCSC)C(=O)N[C@@H](Cc1cnc[nH]1)C(=O)N[C@@H](CC(N)=O)C(=O)N[C@@H](CC(C)C)C(=O)NCC(=O)N[C@@H](CCCCN)C(=O)N[C@@H](Cc1cnc[nH]1)C(=O)N[C@@H](CC(C)C)C(=O)N[C@@H](CC(N)=O)C(=O)N[C@@H](CO)C(=O)N[C@@H](CCSC)C(=O)N[C@@H](CCC(=O)O)C(=O)N[C@@H](CCCN=C(N)N)C(=O)N[C@H](C(=O)N[C@@H](CCC(=O)O)C(=O)N[C@@H](Cc1c[nH]c2ccccc12)C(=O)N[C@@H](CC(C)C)C(=O)N[C@@H](CCCN=C(N)N)C(=O)N[C@@H](CCCCN)C(=O)N[C@@H](CCCCN)C(=O)N[C@@H](CC(C)C)C(=O)N[C@@H](CCC(N)=O)C(=O)N[C@@H](CC(=O)O)C(=O)N[C@H](C(=O)N[C@@H](Cc1cnc[nH]1)C(=O)N[C@@H](CC(N)=O)C(=O)N[C@@H](Cc1ccccc1)C(=O)O)C(C)C)C(C)C` [teriparatide], the “total hip BMD” value ([5]; 2 years of teriparatide after 2 years of denosumab, versus mean BMD at end of denosumab treatment (Leder, Lancet 2015)) is listed as “remains below the mean BMD” and the “BMD in the hip and femoral neck” value ([5]; switching from denosumab to teriparatide) is listed as “substantial BMD loss”.
